Measured values from US20200276165A1, “OVOTIOLS FOR THE TREATMENT OF CHRONIC LOW-GRADE SYSTEMIC INFLAMMATION (CLGSI) AND RELATED DISEASES” (UNIVERSITA' DEGLI STUDI G. D'ANNUNZIO CHIETI - PESCARA, priority 2017, published 2020).
Blank lines part the entries; values can stand above or below the compound they belong to.

Experiments:
[1] = system: cGMP levels in C-HUVECs; assay: Cyclic guanosine mono phosphate assay (cGMP), EIA; assay type: cell-based, human
Protocol: Cyclic guanosine mono phosphate assay (cGMP): intracellular cGMP levels were evaluated by using a commercially available Enzyme Immunoassay (EIA) kit (GE Healthcare, Little Chalfont, Buckinghamshire, UK).

[2] = system: peroxynitrite in C-HUVECs; assay: Peroxynitrite levels by flow cytometry, HKGreen-4A probe; assay type: cell-based, human; settings: C-HUVEC
Description: (§1) Cell endothelial cultures and experimental protocols: umbilical cords were obtained from randomly selected healthy Caucasian (Control, C) and with Gestational Diabetes (GD) mothers delivering at the Hospital of Chieti and Pescara. All procedures were in agreement with the ethical standards of the Institutional Committee on Human Experimentation (Reference Number: 1879/09COET) and with the Declaration of Helsinki Principles. After approval of the protocol by the Institutional Review Board, signed informed consent was obtained from each participating subject. Primary C- and GD-HUVECs were obtained and used between the 3rd and 5th passages in vitro. To evaluate the potential cytotoxicity of ovothiol, HUVECs were stimulated for 24 h with different doses (10-100 μM) of ovothiol A. The best doses of ovothiol A were used to evaluate their effects on the cells treated with TNF (1 ng/ml, Sigma Aldrich) which activated the inflammatory response. Briefly, HUVECs were grown to sub-confluence in complete culture medium DMEM/M199 (Mascia Brunelli, Italia). The cells were pre-incubated with ovothiol A (10 and 50 μM) for 24 hours or with medium alone as basal condition. Subsequently the cells were stimulated with TNF for 16 hours.
(§2) Flow cytometry: for flow cytofluorimetry analysis, C- and GD-HUVECs were stimulated as described in the experimental protocols. Non-permeabilized cells were detached by tetra-acetic ethylene-diamine acid solution (EDTA) 5 mM, washed and resuspended in bovine serum albumin (BSA) 0.5%. Cells harvested by centrifugation at 800 rpm for 15 min were incubated with anti-VCAM-1 PE-conjugate (1:100, phycoerythrin; Biolegend, San Diego, Calif., USA) and anti-ICAM-1 FITC-conjugate (1:100, fluorescein isothiocyanate; Biolegend) antibodies, both for 30 min at 4° C. The intracellular levels of peroxynitrite (ONOO—) were detected in C- and GD-HUVECs by using the HKGreen-4A probe (10 μM, 30 min at 37° C.) synthesized and provided by the laboratory of Prof. Dan Yang's. Reactive Oxygen Species (ROS) levels were evaluated with the fluorogenic reagent dichlorofluorescein diacetate (DCF-DA, Sigma-Aldrich) (20 μM, 45 min at 37° C.). All samples were analyzed using a FACS Calibur or FACS Canto II (BD Bioscences). The levels of membrane proteins (VCAM-1 and ICAM-1), fluorescence detection of ONOO— and ROS were evaluated by cytometric analysis of over 10.000 events for each sample. All data were analyzed using FACS Diva (BD Bioscences) and FlowJo v.8.8.6 software (TreeStar, Ashland, Oreg.) and expressed as percentage (%) of positive cells or MFI (Mean Fluorescence Intensity) Ratio. The MFI Ratio was calculated by dividing the MFI of positive events by the MFI of negative events (MFI of secondary antibody).

[3] = system: peroxynitrite in GD-HUVECs; assay: as above; assay type: cell-based, human; settings: GD-HUVEC
Description: as §1, §2

[4] = Ovothiol A level in medium without the cells (HPLC); assay type: in vitro ADME; settings: Control: medium without the cells, ovothiol A 50 μM
Protocol: (§3) Analysis of Ovothiol A levels in cell cultures: HUVEC cells (1,2×10^6 cellule) were cultured in flasks (25 cm^2) in the absence and in the presence of 50 μM ovothiol A and collected after incubation at different time intervals. The culture media were recovered by centrifugation and frozen for ovothiol A quantitation by HPLC analysis. The cellular pellets were resuspended in PBS pH 7.5, sonicated three times for 15 sec and 30% amplitude. The samples were then centrifuged at 13.000 rpm over 15 min to remove cellular debris, ultrafiltered by Microcon 3 to remove all molecules with MW>3 kDa and frozen for further analysis by HPLC. HPLC analyses were performed in duplicate on an LC10AD instrument equipped with binary pumps and a Shimadzu SPD-10AVP detector set at 254 nm and 280 nm. A Phenomenex Synergi Sphereclone octadecylsilane (25 cm×0.46 cm, 4 μm particle size) column was used with 1% formic acid taken to pH 4.5 with ammonia, as the eluant, at a 0.7 mL/min flow rate.

[5] = system: ICAM-1 on C-HUVEC; assay: Flow cytometry, membrane exposure of ICAM-1; assay type: cell-based, human; settings: 50 μM ovothiol A, TNFα
Description: (§4) Cell endothelial cultures and experimental protocols: umbilical cords were obtained from randomly selected healthy Caucasian (Control, C) and with Gestational Diabetes (GD) mothers delivering at the Hospital of Chieti and Pescara. All procedures were in agreement with the ethical standards of the Institutional Committee on Human Experimentation (Reference Number: 1879/09COET) and with the Declaration of Helsinki Principles. After approval of the protocol by the Institutional Review Board, signed informed consent was obtained from each participating subject. Primary C- and GD-HUVECs were obtained and used between the 3rd and 5th passages in vitro. […]
(§5) Flow cytometry: for flow cytofluorimetry analysis, C- and GD-HUVECs were stimulated as described in the experimental protocols. […] The intracellular levels of peroxynitrite (ONOO—) were detected in C- and GD-HUVECs by using the HKGreen-4A probe (10 μM, 30 min at 37° C.) synthesized and provided by the laboratory of Prof. […] Reactive Oxygen Species (ROS) levels were evaluated with the fluorogenic reagent dichlorofluorescein diacetate (DCF-DA, Sigma-Aldrich) (20 μM, 45 min at 37° C.). All samples were analyzed using a FACS Calibur or FACS Canto II (BD Bioscences). The levels of membrane proteins (VCAM-1 and ICAM-1), fluorescence detection of ONOO— and ROS were evaluated by cytometric analysis of over 10.000 events for each sample. […]

[6] = system: ICAM-1 on GD-HUVEC; assay: Flow cytometry, membrane exposure of ICAM-1; assay type: cell-based, human; settings: 50 μM ovothiol A, TNFα
Description: as §4, §5

[7] = system: ROS in GD-HUVECs; assay: ROS levels by flow cytometry (DCF-DA); assay type: cell-based, human; settings: GD-HUVEC, under inflammatory conditions (TNFα)
Description: as §4, §5

[8] = system: ROS in C-HUVECs; assay: ROS levels by flow cytometry (DCF-DA); assay type: cell-based, human; settings: C-HUVEC, in the absence of TNFα
Description: as §4, §5

[9] = system: U937 monocytes adhesion to GD-HUVECs; assay: Adhesion of monocytes to endothelium assay; assay type: cell-based, human; settings: GD-HUVEC, 24 hours pre-treatment with 10 and 50 μM, TNFα 1 ng/ml 16 hours
Description: as §4
(§6) Adhesion of monocytes to endothelium assay: adhesion of U937 monocytes to C- and GD-HUVECs was evaluated in the basal state, after 16 hours of TNFα treatment (1 ng/ml) and in presence of ovothiol A (10-50 μM). The cells were grown to confluence in six-well culture plates and U937 adhesion was evaluated as previously described (Di Tomo, P., Lanuti, P., Di Pietro, N., Baldassarre, M. P. A., Marchisio, M., Pandolfi, A., Consoli, A., Formoso, G. (2017) Liraglutide mitigates TNF-α induced pro-atherogenic changes and Microvesicles release in HUVEC from diabetic women. Diabetes Metab. Res. Rev. doi: 10.1002/dmrr.2925).

[10] = system: U937 monocytes adhesion to C-HUVECs; assay: Adhesion of monocytes to endothelium assay; assay type: cell-based, human; settings: C-HUVEC, 24 hours pre-treatment with 10 and 50 μM, TNFα 1 ng/ml 16 hours
Description: as §4, §6

[11] = system: C-HUVECs; assay: Analysis of ovothiol A levels in cell cultures (HPLC); assay type: in vitro ADME, human
Protocol: as §3

[12] = system: GD-HUVECs; assay: as above; assay type: in vitro ADME, human
Protocol: as §3

[13] = system: C-HUVECs; assay: MTT assay, cell viability; assay type: cell-based, human; settings: C-HUVEC
Description: as §1
(§7) MTT assay: ovothiol effect on the viability of C- and GD-HUVECs was evaluated by the 3-(4,5 dimethylthiazolyl-2)-2,5-diphenyltetrazolium bromide (MTT, Sigma-Aldrich) assay. 1×10^5 cells were plated in 96-well plates, grown to sub-confluence with the medium alone (as control) or stimulated for 24 h with growing doses of ovothiol A (10-100 μM), in the presence or absence of TNFα stimulation (1 ng/ml). A solution of MTT in phosphate buffer saline (PBS) was added to each well to a final concentration of 5 mg/ml. After 3 h incubation at 37° C., the cellular viability was evaluated before addition of 0.2 ml dimethylsulfoxide (DMSO, Sigma-Aldrich) for crystal solubilization in the vital cells. The absorbance at 540 nm was read using a micro-plate reader (SpectraMAX 190, Molecular Devices Inc., Sunnyvale, Calif., USA) and results were expressed as the absorbance at 540 nm (ABS 540 nm).

[14] = system: GD-HUVECs; assay: MTT assay, cell viability; assay type: cell-based, human; settings: GD-HUVEC
Description: as §1, §7

[15] = system: VCAM-1 on GD-HUVEC; assay: Flow cytometry, membrane exposure of VCAM-1; assay type: cell-based, human; settings: 50 μM ovothiol A, TNFα
Description: as §4, §5

[16] = system: VCAM-1 on C-HUVEC; assay: Flow cytometry, membrane exposure of VCAM-1; assay type: cell-based, human; settings: 50 μM ovothiol A, TNFα
Description: as §4, §5

[17] = system: Hep-G2 cell line; settings: epatocarcinoma cell lines; cited from earlier work
[18] = system: intracellular GSH in GD-HUVECs; assay: Determination of intracellular glutathione levels (GSH); assay type: cell-based, human; settings: GD-HUVEC, after 10 minutes of incubation of ovothiol A
Protocol: as §3, with “A Phenomenex Synergi Sphereclone octadecylsilane (25 cm×0.46 cm, 4 μm particle size) column was used with 1% formic acid taken to pH 4.5 with ammonia, as the eluant, at a 0.7 mL/min flow rate.” left out
Determination of intracellular glutathione levels (GSH): total GSH was determined by using the Glutathione Assay Kit (Sigma). […] The supernatant was used for the determination of glutathione by performing a kinetic assay in which catalytic amounts (nmoles) of GSH caused a continuous reduction of 5,5-dithiobis (2-nitrobenzoic acid) (DTNB) to 5-thio-2-nitrobenzoic (TNB), measured at 405 nm by a Thermo Scientific™ Multiskan™ FC Microplate Photometer.

[19] = Ionomycin 50 nM in combination with PMA 0.3 μM, positive control
[20] = C-HUVECs incubated 30 minutes with ovothiol A 50 μM, HPLC
[21] = GD-HUVECs incubated 30 minutes with ovothiol A 50 μM, HPLC
[22] = 50 μM, in the presence or absence of TNFα
[23] = pre-treatment with 50 μM, after exposure to TNFα

Compound: COC(=O)[C@@H](N)CCCNC(=N)N[N+](=O)[O-] [L-NAME, reference compound]
cGMP levels, addition of L-NAME to Ionomycin ([1]; C-HUVEC, Ionomycin-stimulated): restored the initial levels

Compound: C[C@H](CCC(=O)O)C[C@H](C)C[C@H](C)C(=O)/C=C(\O)[C@H](C)C[C@H](C)C/C=C/[C@@H](C)[C@@H](O)[C@@H](C)[C@@H](O)C[C@@H]1CC[C@@](C)([C@H]2CC[C@@](C)([C@@H](C)O)O2)O1 [Ionomycin, reference compound]
cGMP levels ([1]; C-HUVEC, positive control): induced the increase of cGMP levels
peroxynitrite formation [2, 19]: induced peroxynitrite formation
peroxynitrite formation [3, 19]: induced peroxynitrite formation

ovothiol A in medium [4]: 45 µmol/L
kinetic decay of the compound in the medium ([11]; C-HUVEC medium, 50 μM, compared to the medium without the cells): very rapid
ovothiol A in cells [11, 20]: 1.18 pmol/cell
ovothiol A in medium [11, 20]: 14.86 ± 1.24 µmol/L
kinetic decay of the compound in the medium ([12]; GD-HUVEC medium, 50 μM, compared to the medium without the cells): very rapid
ovothiol A in cells [12, 21]: 1.53 pmol/cell
ovothiol A in medium [12, 21]: 10.08 ± 1.68 µmol/L
Compound: ovothiol A
effect on ICAM-1 levels (membrane exposure) [5]: did not reach the statistical significance
effect on ICAM-1 levels (membrane exposure) [6]: did not reach the statistical significance
ROS levels [7]: reduced ROS levels
ROS levels [8]: reduced ROS levels
cGMP levels, effect of ovothiol A with TNFα treatment ([1]; C-HUVEC, TNFα+Ovot): abolished
cGMP levels ([1]; C-HUVEC, ovothiol A treatment): significantly increased
cGMP levels, effect of ovothiol A with L-NAME pre-incubation ([1]; pre-incubation with L-NAME 1 mM for 45 minutes): not affected
U937 cell adhesion (number of adherent cells) [9]: significant reduction
U937 cell adhesion (number of adherent cells) [10]: only on GD-HUVECs
cell viability parameters (MTT) [13, 22]: no significant changes
cytotoxicity (viability by MTT assay) ([13]; 100 μM ovothiol A, 24 h): cytotoxic
cell viability parameters (MTT) [14, 22]: no significant changes
cytotoxicity (viability by MTT assay) ([14]; 100 μM ovothiol A, 24 h): cytotoxic
exposure of VCAM-1 on the membrane [15]: significantly reduced
exposure of VCAM-1 on the membrane [16]: significantly reduced
autophagy [17]: induces autophagy
reduction of reactive oxygen species [17]: without inducing a reduction of reactive oxygen species
levels of peroxynitrite [2, 23]: significantly reduced
levels of peroxynitrite [3, 23]: significantly reduced
intracellular GSH levels [18]: increased significantly
